The values that follow come from patent US7253177B2, “Synthesis and antimalarial activity of pyrrolo[3,2-f]quinazoline-1,3-diamine derivatives” (United States of America as Represented by the Secretary of …, priority 2004, dated 2007).

The subject of one assay is P. falciparum FVO. Put plainly: Antimalarial activity against P. falciparum in Aotus monkey. It is filed as in vivo, Plasmodium falciparum. As to conditions: 1 mg/kg once a day x three days, cured = parasitemia free for 100 days post treatment. The procedure: (e). Toxicity Study in Aotus monkey: Protocol: Two malaria double cured Aotus weighing 1027-695 grams respectively received single dose of 3 mg/kg orally of the two compounds 2b and 3e. The monkeys were weighed and pre-bleed for CBC and Chemistry (ALT, BUN, Creatinine) determination, and again three, seven and 15 days post treatment. Signs of toxicity such as anorexia, vomiting, diarrhea or behavior changes were recorded. […] (f). Antimalarial Activity against P. falciparum in Aotus monkey: Protocol: Six (6) malaria naive Aotus lemurinus lemurinus (weigh 787-978 grms) were divided into two groups of two Aotus each plus two controls (MN13177 male and MN 13153 male) and infected with 5×10^6 P. falciparum FVO malaria parasites with 1 ml of an appropriate dilution in RPMI media intravenously on the saphenous vein. When their parasitemia reached 5×10^4 parasites/ul, treatment was started. Giemsa-stained thick blood smears were prepared daily with a prick in the ear marginal vein and parasites enumerated by the Earle and Perez method. Group 1 Aotus received 3e at 1 mg/kg once a day×three days. Group 2 Aotus received 2b at 1 mg/kg once a day×three days. The monkeys were weight and pre-bled for CBC and Chemistry (ALT, BUN, Creatinine) determination, and on day 4 post-treatmetne (PT). Bleedings for Pk determinations were carried out on day 1 PT at time 0, 1 hr, 7:30 hr and 24 hr PT. […]

Assay [1] has as its system Plasmodium falciparum TM91C235 (Southeast Asia Isolates). Briefly: In vitro antimalarial study, [3H]hypoxanthine uptake, TM91C235 clone. Format: cell-based. On the procedure:
B. Antimalarial Activities: (a). In Vitro Antimalarial Studies. The in vitro assays were conducted by using a modification of the semiautomated microdilution technique of Desjardins et al and Chulay et al.. Four P. falciparum malaria parasite clones, from CDC Indochina III (W-2), CDC Sierra Leone I (D-6), Southeast Asia Isolates (TM91C235) and RCS (Isolates from Brazil) were utilized in susceptibility testing. They were derived by direct visualization and micromanipulation from patient isolates. The W-2 clone is susceptible to mefloquine but resistant to chloroquine, sulfadoxine, pyrimethamine, and quinine, whereas the D-6 clone is naturally resistant to mefloquine but susceptible to chloroquine, sulfadoxine, pyrimethamine and quinine. Test compounds were initially dissolved in DMSO and diluted 400 fold in RPMI 1640 culture medium supplemented with 25 mM Hepes, 32 mM NaHCO3 and 10% Albumax I (Gibco BRL, Grand Island, N.Y.). These solutions were subsequently serially diluted two-fold with a Biomek 1000 (Beckman, Fullerton, Calif.) over 11 different concentrations. The parasites were exposed to serial dilutions of each compound for 48 hrs and incubated at 37° C. with 5% O2, 5% CO2 and 90% N2 prior to the addition of [^3H]hypoxanthine. After a further incubation of 18 hrs, parasite DNA was harvested from each microtiter well using Packard Filtermate 196 Harvester (Meriden, Conn.) onto glass filters. Uptake of [^3H]hypoxanthine was measured with a Packard Topcount Scintillation. Concentration-response data were analyzed by a non-linear regression logistic dose response model and the IC50 values (50% inhibitory concentrations) for each compound were calculated. (Table 3). (b). In Vivo Antimalarial Studies against P. berghei in mice: The in vivo efficacy of the artelinic acid analogs were determined in a modified Thompson test. This test measures the survivability of mice and parasitemia clearance following administration of drug on days 3-5 post infection. In brief, 5×10^6 P. berghei-infected erythrocytes (KBG-173 strain) were inoculated intraperitoneally to female mice that weighed 24-30 g. By day three post-infection, parasitemia ranged from 1.0-3.7%. Each drug, dissolved in 5% sodium bicarbonate, was administered PO twice daily from day 3-5 post-infection. Total doses for each drug ranged from 1.5-384 mg/kg with 8 mice included in each dosage group. The percent suppression of parasitemia in the treated mice compared to the untreated controls was determined for each test compound; the SD-50 (fifty percent suppression dose) and SD-90 were determined from a non-linear regression logistic dose response fit at day 6 parasitemia data. Survival of mice to day 60 post-infection was considered a cure (C). Compounds were considered active (A) when the survival time of the treated mice was greater than twice the control mice, i.e., 12-14 day (Table 4-5). (c). Sporozoite Induced Test Each compound is ground with a mortar & pestle and suspended in 0.5% hydroxyethylcellulose—0.1% Tween 80 for compounds to be administered PO and those given SC are suspended in peanut oil. Each compound is prepared at 3 different dose levels as requested by WRAIR. Compounds are administered either PO or SC to mice once 4 hr before inoculation of sporozoites. Four-week-old male CD-1 mice, purchased from Charles River and weighing 16-17 g, are placed 5 per cage and allowed to acclimate for 4 days before being treated and then inoculated with sporozoites. They are fed food and water ad-lib and maintained at 76° F. with 12 hr light and 12 hr darkness. The cages and water bottles are changed biweekly. The mice are weighed on Days 0, 3 and 6 then biweekly when blood films are taken. Plasmodium yoelii (17×) is used to infect mice that will be used to infect the mosquitoes. Mice are given a single dose of test compound 4 hr before being inoculated intraperitoneally with 2.5×10^5 sporozoites of Plasmodium yoelii on Day 0. […]

In brackets after ≈: the same amount, converted by molar mass. Bounds are passed on as bounds.

One may read the IC50 as the concentration needed to halve the response being measured.

For `CCOC(=O)Nc1nc(NC(=O)OCC)c2c(ccc3c2ccn3Cc2ccccc2C(F)(F)F)n1` [Compound 2b], in the assay on P. falciparum FVO, the “# Monkey Cured/# Monkey Used, P. falciparum” value is reported as 2/2. For the same molecule, the “IC50 TM91C235” value in assay [1] (P. falciparum TM91C235 clone) is given as above 250 ng/mL.

As to `CC(=O)N(C(C)=O)c1nc(N(C(C)=O)C(C)=O)c2c(ccc3c2ccn3Cc2ccccc2C(F)(F)F)n1` [Compound 3e, 1,3-Bis(diacetylamino)-7-(2-trifluoromethyl)benzyl-7H-pyrrolo[3,2-f]quinazoline], the “# Monkey Cured/# Monkey Used, P. falciparum” value with P. falciparum FVO is reported as 2/2. In addition, the IC50 in assay [1] (Plasmodium falciparum, read-out: IC50 TM91C235) amounted to 0.0845 ng/mL (≈ 0.161 nM).
